These results are taken from the NIST ThermoML archive (doi:10.1016/j.jct.2012.06.003).

The conditions of data set [1]: for Normal melting temperature: Crystal.
Data set [2] is described as follows: Molar enthalpy of transition or fusion. To be noted: DSC.

Numbers after ± are expanded uncertainties.

Turning to `CCCCCC[n+]1cccc(C)c1.O=S(=O)([O-])C(F)(F)F` [1-hexyl-3-methylpyridinium trifluoromethanesulfonate], the Triple point temperature in data set [1] (Crystal 2, DTA) stood at 310.3 ± 0.4 K. Moreover, the Normal melting temperature in data set [1] (DTA) amounted to 64.61 ± 0.39 °C; in data set [1] (Visual method), 63 ± 0.1 °C. The “Molar enthalpy of transition or fusion” value was determined as 0.467 ± 0.0526 kcal/mol in data set [2] (Crystal 2) and 10 ± 0.217 kcal/mol in data set [2] (Crystal).
